Measured values reported in patent publication US7897610B2, “Use of benzo[c]quinolizinium derivatives for the treatment of diseases that are linked to smooth muscle cell constriction” (Centre National de la Recherche Scientifique, priority 2002, dated 2011).
Values joined by “and” are separate entries in the source; they are usually repeats but may differ in a detail not shown here. Equal entries are not always repeated. “Also recorded” adds a separate entry of the source. Where two headings read alike, the source gives them in different places.

Assays:
[1] = system: aorta rings isolated from rats; experiment: Isolated organ technique: relaxation of rat aorta rings pre-contracted in hyperpotassium solution (80 mM KCl); format: cell-based; conditions: for EC50: Rattus norvegicus
Description: The experiments are carried out on the thoracic aorta of male rats of Wistar strain weighing 200 to 250 g, 7 to 8 weeks of age. The rat is stunned then placed in the supine position. After thoracotomy, the segment of the aorta comprised between the diaphragm and the right aortic arch is excised. The portion of aorta is immediately placed in a buffered physiological solution of modified Krebs type. The aorta is sectioned into 5 mm rings.
For certain preparations, the endothelium is removed mechanically using a needle surrounded by a wire which is turned in the aorta ring.
The aorta rings, after dissection, are suspended between two hooks one of which is fixed and the other is mobile. This mounting is placed in a chamber of Plexiglas (Emka Technologies), thermostatically-controlled at 37° C., containing 5 ml of physiological solution oxygenated by a gas mixture (95% O2-5% CO2). The thermostatically-controlled enclosure is supplied by a water bath. The mobile hook is suspended with a sensor connected to the interface (electromechanical transducer). This interface is connected on the one hand to an amplifier (amplification of the signal) and on the other hand to a computer (display and analysis of the signal). The IOX 1.565 program enables the processing and display of the signals on the computer screen. The Data Analyst and Prism 3.0 programs allow analysis of the results.
After mounting the aorta rings in the experimental device, these are stretched at a basal tension of 2.5 g. This tension corresponds to the optimum point of their tension/length relationship. Waiting for a stable state in the reference physiological medium is carried out over a period of approximately 1 hour with washing every 20 minutes. Following this equilibration period, the different experiments are carried out.
In order to be free of the relaxation/contraction mechanisms due to the endothelium, certain preparations are made devoid of the latter by mechanical destruction. In order to ensure effective destruction of the endothelium, a cholinergic test (ACh 10^−4 M) is carried out at the end of the first period of equilibration, on preparations pre-contracted by a hyperpotassium solution (80 mM of KCl).
Following this test, the preparations are subjected to several successive washings in order to re-establish a stable state. Once a stable state is reached, the different experiments can be carried out. The contractures due to the hyperpotassium solutions are obtained by the total replacement of the reference physiological solution by the hyperpotassium solution. The administration of the pharmacological substances is carried out in a cumulative fashion and directly in the isolated organ chambers whilst paying attention that the additional volume is not too high. The application of each new concentration only occurs after stabilization. In order to be aware of the reactivity state of the preparation at the end of manipulation, a hyperpotassium or noradrenergic test is carried out. If the preparation reacts in the direction of a contracture, the test is valid.
The composition of the reference physiological solution is a solution of modified Krebs type: NaCl: 120 mM; KCl: 4.7 mM; CaCl2: 2.5 mM; MgCl2: 1.2 mM; NaH2PO4: 1.2 mM; NaHCO3: 15 mM; Hepes: 10 mM; Glucose: 11 mM; pH=7.4. Hyperpotassium solutions containing different concentrations of KCl have been prepared according to the same principle. These solutions are used to provoke a contracture of the aorta ring by depolarisation of the smooth muscle cells. The hyperpotassium solution mainly used in the experiments contains 80 mM of KCl.

CFTR [2] = target: T1, CFTR (Rattus norvegicus, UniProt P34158); experiment: Iodide efflux in muscle cell freshly dissociated from rat aorta; format: cell-based
T1 construct: CFTR is detected at the level of its messenger RNA and at the level of protein in the smooth muscles; from tissue; host or cells: smooth muscle cells freshly dissociated from rat aorta
T1 sequence (P34158 whole entry): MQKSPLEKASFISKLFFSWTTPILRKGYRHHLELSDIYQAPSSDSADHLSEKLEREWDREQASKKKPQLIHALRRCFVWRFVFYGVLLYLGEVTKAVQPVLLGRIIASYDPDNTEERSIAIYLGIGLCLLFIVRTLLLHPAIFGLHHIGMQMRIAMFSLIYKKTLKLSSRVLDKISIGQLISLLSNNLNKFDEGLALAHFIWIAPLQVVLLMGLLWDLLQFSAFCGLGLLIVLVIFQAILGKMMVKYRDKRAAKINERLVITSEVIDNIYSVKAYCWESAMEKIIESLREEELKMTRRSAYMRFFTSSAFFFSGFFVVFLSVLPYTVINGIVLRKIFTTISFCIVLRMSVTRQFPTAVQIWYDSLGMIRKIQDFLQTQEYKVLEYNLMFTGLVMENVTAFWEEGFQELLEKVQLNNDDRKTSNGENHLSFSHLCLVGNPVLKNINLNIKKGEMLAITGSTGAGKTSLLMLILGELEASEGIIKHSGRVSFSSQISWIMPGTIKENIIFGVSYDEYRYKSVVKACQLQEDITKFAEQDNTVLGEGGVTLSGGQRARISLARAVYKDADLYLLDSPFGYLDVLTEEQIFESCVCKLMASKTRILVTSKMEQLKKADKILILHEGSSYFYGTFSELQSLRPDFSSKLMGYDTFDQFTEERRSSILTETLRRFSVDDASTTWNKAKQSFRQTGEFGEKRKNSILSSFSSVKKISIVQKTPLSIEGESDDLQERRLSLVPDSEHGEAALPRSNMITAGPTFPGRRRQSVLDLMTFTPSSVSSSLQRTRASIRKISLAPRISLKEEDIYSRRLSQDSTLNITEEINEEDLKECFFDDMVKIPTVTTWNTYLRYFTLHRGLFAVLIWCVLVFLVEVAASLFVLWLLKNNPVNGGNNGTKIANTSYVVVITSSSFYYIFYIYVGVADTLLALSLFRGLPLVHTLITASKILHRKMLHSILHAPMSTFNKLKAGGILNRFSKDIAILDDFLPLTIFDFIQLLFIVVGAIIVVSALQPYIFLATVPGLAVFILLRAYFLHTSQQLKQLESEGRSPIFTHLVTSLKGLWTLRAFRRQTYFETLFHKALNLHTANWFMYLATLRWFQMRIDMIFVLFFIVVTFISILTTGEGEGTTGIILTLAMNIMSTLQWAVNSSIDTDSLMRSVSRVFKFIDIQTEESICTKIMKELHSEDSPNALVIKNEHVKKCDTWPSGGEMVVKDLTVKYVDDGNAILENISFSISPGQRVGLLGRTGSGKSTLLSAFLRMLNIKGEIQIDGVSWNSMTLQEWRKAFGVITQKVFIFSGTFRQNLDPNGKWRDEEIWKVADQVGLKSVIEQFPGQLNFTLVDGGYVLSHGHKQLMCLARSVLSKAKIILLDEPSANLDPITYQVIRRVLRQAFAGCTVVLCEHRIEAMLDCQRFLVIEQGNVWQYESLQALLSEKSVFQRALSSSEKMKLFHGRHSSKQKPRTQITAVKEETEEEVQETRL
Excerpt: (§1) CFTR is detected at the level of its messenger RNA and at the level of protein in the smooth muscles. As negative control the inventors used musculus skeleti of rat at the level of which neither the messenger nor the protein are present. CFTR is detectable in the smooth muscle by immunoprecipitation and phosphorylation in vitro by the protein kinase A. The pharmacology of CFTR has been studied using iodide efflux in muscle cell freshly dissociated from rat aorta. […] Its inhibition profile is similar to that of epithelial CFTR (sensitivity to glibenclamide and DPC but not to Calixarene). […] Moreover, a greater contraction is observed in the KO animals in response to the constricting agents.

[3] = system: aorta rings of Cftr-/- mice; experiment: Vasorelaxation of aorta rings contracted by 80 mM K+, Cftr-/- mice; format: cell-based, mouse; conditions: pre-contracted aorta
Excerpt: as §1
(§2) a, graphs showing the vasorelaxation induced by the VIP neuropeptide (Vasoactive Intestinal Polypeptide) of aortas without endothelium of Cftr^+/+ (left) and Cftr^−/− (right) mice. The aorta rings are reversibly contracted by a hyperpotassium solution (solution of 80 mM K^+) then the effect of 300 nM VIP is measured. The absence of endothelium is verified by the addition of acetylcholine (ACh, 10^−5 M).
(§3) This effect is absent in Cftr^−/− mice (n=6). Average±SEM*P<0.05, ** P<0.01, *** P<0.001.

[4] = system: anionic transport in smooth muscle cells of aorta rings; experiment: Iodide efflux (125I) on rat aorta rings; format: cell-based; design: key to iodide discharge speed / iodide discharge speed after stimulation: Ln(125I t1/125I t2)/(t1−t2), per min; key to increase of discharge speed over basal state: difference of Ln(125I t1/125I t2)/(t1−t2) values, per min; conditions: for iodide discharge speed / increase of discharge speed over basal state: hyperpotassium medium; for activation of anionic transport / discharge speed: smooth muscle cells of aorta rings
Description: The iodide efflux technique, perfected by Venglarick et al. (1990), allows measurement of the movement of ions and is described in detail in Derand et al. (2001).
The aorta rings of equivalent size, are incubated in 1 ml of filling solution composed of physiological solution of modified Krebs type or hyperpotassium solution (80 mM KCl) supplemented with 1.5 μl/ml of Na ^125I and 0.1 μl/ml of KI. After incubation for 1 hour 30 minutes at 37° C., 4 successive rinsings of two minutes are carried out in 1 ml of appropriate physiological solution (normal Krebs or hyperpotassium solution). An iodide efflux kinetics of the aorta rings is carried out for 12 min. After each minute, the content of each well is sampled and placed in hemolysis tubes, and radioactivity is counted with a gamma counter (Packard, Cobra II). At the 12th minute, the aorta rings are solubilized in Sodium Dodecyl Sulphate (SDS 0.1%)+NaOH (0.1 M). This stage allows the recovery of the residual radioactivity by cell destruction.
The total radioactivity of the cells is calculated by the addition of the counts per minute (cpm) of each collected fraction and of the cpm of the solubilized fraction (residual radioactivity). The curves are plotted expressing the efflux as a percentage of the cell content accumulated in the medium as a function of time. For example, the value attributed at time tn, corresponds to: 100×(Σ cpm obtained from t0 to tn)/total radioactivity. The instantaneous discharge speed is presented according to the formula Ln(^125It1/^125It2)/(t1−t2), where t1 and t2 are two successive times and ^125It1 and ^125It2 are the effluxes measured at time t1 and t2. In order to evaluate the effect of a substance, the activation ratio r=discharge speed after stimulation/discharge speed before stimulation is determined. The results (average±SEM) are compared using Student's statistical test for a paired value.

human mammary arteries = experiment: Vasorelaxant effect on human mammary arteries; format: cell-based
Excerpt: The pharmacological effects of the compounds of the benzo[c]quinolizinium family, CFTR activators: 6-hydroxy-10-chlorobenzo[c]quinolizinium chloride (reference name: MPB-07) and 5-butyl-6-hydroxy-10-chlorobenzo[c]quinolizinium chloride (reference name: MPB-91), were studied on aorta rings isolated from rats and from human mammary arteries.

CFTR [5] = target: T2, CFTR (Homo sapiens, UniProt P13569); conditions: epithelial cells; cited from earlier work
T2 construct: In cells expressing the CFTR protein in an endogenous manner
T2 sequence (P13569 whole entry): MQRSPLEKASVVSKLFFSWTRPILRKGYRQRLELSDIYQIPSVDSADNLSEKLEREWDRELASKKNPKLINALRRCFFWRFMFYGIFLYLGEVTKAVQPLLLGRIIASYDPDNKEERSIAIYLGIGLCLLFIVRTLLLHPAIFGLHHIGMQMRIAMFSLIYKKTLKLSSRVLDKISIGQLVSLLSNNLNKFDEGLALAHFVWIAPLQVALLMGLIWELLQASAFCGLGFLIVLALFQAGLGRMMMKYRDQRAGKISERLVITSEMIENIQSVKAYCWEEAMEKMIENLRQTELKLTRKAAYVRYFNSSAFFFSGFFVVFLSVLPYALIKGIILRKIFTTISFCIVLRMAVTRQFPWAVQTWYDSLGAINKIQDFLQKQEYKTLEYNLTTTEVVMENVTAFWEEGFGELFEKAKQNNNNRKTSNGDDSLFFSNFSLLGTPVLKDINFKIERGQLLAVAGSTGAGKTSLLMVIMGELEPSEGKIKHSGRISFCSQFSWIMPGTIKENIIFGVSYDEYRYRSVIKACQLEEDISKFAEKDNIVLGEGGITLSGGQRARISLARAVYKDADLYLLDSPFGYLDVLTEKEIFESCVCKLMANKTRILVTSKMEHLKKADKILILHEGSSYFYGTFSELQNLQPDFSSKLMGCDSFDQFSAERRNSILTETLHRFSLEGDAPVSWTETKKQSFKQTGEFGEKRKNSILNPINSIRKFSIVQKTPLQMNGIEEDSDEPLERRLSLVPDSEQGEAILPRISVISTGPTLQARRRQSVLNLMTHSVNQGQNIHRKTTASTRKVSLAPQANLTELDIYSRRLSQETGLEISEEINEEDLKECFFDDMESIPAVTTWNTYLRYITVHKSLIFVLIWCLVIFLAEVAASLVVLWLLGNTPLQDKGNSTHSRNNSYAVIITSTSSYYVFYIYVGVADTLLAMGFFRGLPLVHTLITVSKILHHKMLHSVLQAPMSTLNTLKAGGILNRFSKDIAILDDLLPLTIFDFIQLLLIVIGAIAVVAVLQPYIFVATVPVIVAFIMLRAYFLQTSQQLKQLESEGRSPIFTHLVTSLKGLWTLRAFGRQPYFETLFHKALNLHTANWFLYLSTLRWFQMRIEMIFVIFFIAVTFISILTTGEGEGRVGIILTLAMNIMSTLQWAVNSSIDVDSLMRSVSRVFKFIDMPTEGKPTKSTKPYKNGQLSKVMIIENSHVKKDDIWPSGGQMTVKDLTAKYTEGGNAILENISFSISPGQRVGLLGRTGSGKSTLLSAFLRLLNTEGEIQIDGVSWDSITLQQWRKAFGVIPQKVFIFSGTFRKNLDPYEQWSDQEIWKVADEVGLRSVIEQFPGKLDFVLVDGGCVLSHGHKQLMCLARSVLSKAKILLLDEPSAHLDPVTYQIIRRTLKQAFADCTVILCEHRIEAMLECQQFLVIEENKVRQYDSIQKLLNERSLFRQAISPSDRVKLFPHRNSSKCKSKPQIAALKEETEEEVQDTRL

[6] = system: aorta rings with endothelium pre-contracted by arterenol; experiment: Isolated organ technique: relaxation of rat aorta rings pre-contracted by arterenol; format: cell-based
Description: The experiments are carried out on the thoracic aorta of male rats of Wistar strain weighing 200 to 250 g, 7 to 8 weeks of age. The rat is stunned then placed in the supine position. After thoracotomy, the segment of the aorta comprised between the diaphragm and the right aortic arch is excised. The portion of aorta is immediately placed in a buffered physiological solution of modified Krebs type. The aorta is sectioned into 5 mm rings. The aorta rings, after dissection, are suspended between two hooks one of which is fixed and the other is mobile. […] The thermostatically-controlled enclosure is supplied by a water bath. The mobile hook is suspended with a sensor connected to the interface (electromechanical transducer). This interface is connected on the one hand to an amplifier (amplification of the signal) and on the other hand to a computer (display and analysis of the signal). […] The Data Analyst and Prism 3.0 programs allow analysis of the results. After mounting the aorta rings in the experimental device, these are stretched at a basal tension of 2.5 g. This tension corresponds to the optimum point of their tension/length relationship. Waiting for a stable state in the reference physiological medium is carried out over a period of approximately 1 hour with washing every 20 minutes. Following this equilibration period, the different experiments are carried out. […]

[7] = system: aorta rings of Cftr+/+ mice; experiment: Vasorelaxation of aorta rings contracted by 80 mM K+, Cftr+/+ mice; format: cell-based, mouse; conditions: for effect on pre-contracted aorta: Cftr+/+ rat and mouse tissues
Excerpt: as §1, §2, §3

[8] = without endothelium, 250 μM, 1 minute after addition
[9] = without endothelium, 250 μM, 2 minutes after addition
[10] = comparison of FIG. 6, read-out: EC50, dose/response curves
[11] = summary statement of results, read-out: EC50, vasorelaxant effect

Compound: CC(=O)OCC[N+](C)(C)C [ACh, acetylcholine, reference compound]
- relaxation (cholinergic test) ([1]; rings with endothelium, 10^-4 M): approximately 40%

Compound: O=C(O)c1ccccc1Nc1ccccc1 [DPC]
- inhibition profile of iodide efflux (CFTR [2]): sensitivity

Compound: CC(C)Cn1c(=O)n(C)c(=O)c2[nH]cnc21 [IBMX]
- activation of iodide efflux (CFTR [2]): activate iodide efflux

Compound: Oc1cc2cccc[n+]2c2c(Cl)cccc12.[Cl-] [MPB-07, 6-hydroxy-10-chlorobenzo[c]quinolizinium chloride]
- vasorelaxation in Cftr-/- mice [3]: very considerably reduced; also recorded: absent
- iodide discharge speed ([4]; L-NAME 10^-4 M, 250 μM, 1 minute after addition): 0.103±0.017
- iodide discharge speed ([4]; L-NAME 10^-4 M, 250 μM, 2 minutes after addition): 0.110±0.015
- iodide discharge speed ([4]; L-NAME 10^-4 M, 250 μM, 3 minutes after addition): 0.119±0.011
- increase of discharge speed over basal state ([4]; L-NAME, 1 minute): 0.044
- increase of discharge speed over basal state ([4]; L-NAME, 2 minutes): 0.051
- increase of discharge speed over basal state ([4]; L-NAME, 3 minutes): 0.060
- activation of anionic transport / discharge speed [4]: activates anionic transport
- iodide discharge speed [4, 8]: 0.076±0.008
- iodide discharge speed [4, 9]: 0.099±0.013
- increase of discharge speed over basal state ([4]; without endothelium, 1 minute): 0.023
- increase of discharge speed over basal state ([4]; without endothelium, 2 minutes): 0.046
- iodide discharge speed after stimulation ([4]; without endothelium, normal physiological medium, 250 μM, n=3): 0.076±0.016
- vasorelaxant effect (human mammary arteries): reversible and slow dose-dependent vasorelaxant effect
- EC50 ([1]; aorta rings with endothelium, 80 mM KCl, n=14, read-out: EC50, relaxation): 132.4 ± 0.02 µM
- EC50 ([1]; aorta rings without endothelium, 80 mM KCl, n=7, read-out: EC50, relaxation): 92.9 ± 0.02 µM
- EC50 [1, 10]: 133 µM
- EC50 [1, 11]: 134 µM
- EC50 ([1]; with endothelium + L-NAME 10^-4 M, n=8, read-out: EC50, relaxation): 51.8 ± 0.008 µM
- EC50 ([1]; without endothelium + L-NAME, n=7, read-out: EC50, relaxation): 55.1 ± 0.2 µM
- reversibility of the relaxing effect ([1]; single dose 135 μM, with endothelium, after washing): reversible
- relaxation ([1]; with endothelium + L-NAME, 40 μM): 33±6.15%
- relaxation ([1]; with endothelium + L-NAME, 160 μM): 98±1.3%
- relaxation ([1]; with endothelium, 80 μM): 24±1.6%
- relaxation ([1]; with endothelium, 160 μM): 64%
- relaxation ([1]; with endothelium, 250 μM): 88%
- relaxation ([1]; with endothelium, 500 μM): 96±1.75% and 100%
- relaxation ([1]; without endothelium, 80 μM): 37±5.6%
- relaxation ([1]; without endothelium, 250 μM): 99±1%
- activity on the CFTR channel (CFTR [5]): activators of this ion channel
- relaxation ([6]; 10 μM, arterenol 10^-4 M, after 2 hours 30 minutes): 90±9%
- effect on pre-contracted aorta [7]: relaxation of the pre-contracted aorta
- IC50 ([7]; Mus musculus, aorta rings contracted by 80 mM K+, n=6): 37 ± 1.17 µM

Compound: O=c1cc2ccccn2c2c(Cl)cccc12 [MPB-70, 10-chlorobenzo[c]quinolizine-6-one, reference compound]
- activation of anionic transport / discharge speed [4]: no increase in the discharge speed
- iodide discharge speed [4, 8]: 0.053±0.003
- iodide discharge speed [4, 9]: 0.055±0.005
- relaxation ([1]; with endothelium, 160 μM): 27%
- relaxation ([1]; with endothelium, 250 μM): 42%
- relaxation ([1]; with endothelium, 500 μM): 46%
- activity on the CFTR channel (CFTR [5]): inactive on CFTR of epithelial cells

Compound: CCCCc1c(O)c2cccc(Cl)c2[n+]2ccccc12.[Cl-] [MPB-91, 5-n-Butyl-10-chloro-6-hydroxybenzo[c]quinolizinium chloride]
- melting point: 160 °C
- EC50 [1, 10]: 21 µM
- EC50 [1, 11]: 21 µM

Compound: Nc1ncnc2c1nc(Sc1ccc(Cl)cc1)n2[C@@H]1O[C@@H]2COP(=O)(O)O[C@H]2[C@H]1O [cpt-cAMP]
- activation of iodide efflux (CFTR [2]): activate iodide efflux

Compound: COc1ccc(Cl)cc1C(=O)NCCc1ccc(S(=O)(=O)NC(=O)NC2CCCCC2)cc1 [glibenclamide]
- inhibition profile of iodide efflux (CFTR [2]): sensitivity

Compound: COc1ccc(CCN(C)CCCC(C#N)(c2ccc(OC)c(OC)c2)C(C)C)cc1OC (stereo not shown) [verapamil, Verapamil, reference compound]
- effect on rapid contracture oscillations ([6]; 200 μM, added after MPB-07 10 μM): stops these variations

Compound: Vasoactive Intestinal Polypeptide [VIP, reference compound]
- vasorelaxation in Cftr-/- mice [3]: very considerably reduced
- activation of iodide efflux (CFTR [2]): activate iodide efflux
- effect on pre-contracted aorta [7]: relaxation of the pre-contracted aorta
